Starred links: 1 amine or outer side, 2 acyl side, 3 side chain; linkers in the order of their positions; H or OH if unused. Positions of bridges follow the written chain, without caps; N, C: chain ends. Non-standard residues stand in square brackets, D forms with d. Residues, ends and D or L forms follow the SMILES beside them. *: point of attachment. Adda = CO[C@@H](Cc1ccccc1)[C@@H](C)/C=C(C)/C=C/[C@H](N[*:1])[C@H](C)C(=O)[*:2]; dAsp(3S-Me) = C[C@H](C(=O)[*:3])[C@@H](N[*:1])C(=O)[*:2]; Dolaproine = CO[C@@H]([C@@H]1CCCN1)[C@@H](C)C(=O)O; Dil = CC[C@H](C)[C@H](NC)[C@@H](CC(=O)O)OC; d(γGlu) = O=C(O)[C@@H](CCC(=O)[*:2])N[*:1]; X2 = C[C@@H](N*)[C@@H](O)c1ccccc1; NMeV = CN[C@H](C(=O)O)C(C)C; NMeDha = C=C(NC)C(=O)O
Columns and labels:
[1] = tested on: OATP1B1-expressing HeLa and RKO cells; assay type: cell-based
[2] = tested on: type 1 protein phosphatases; conditions: cited from earlier work
[3] = tested on: OATP1B1-expressing HeLa and RKO cells; conditions: cited from earlier work
[4] = tested on: OATP1B3-expressing HeLa and RKO cells; conditions: cited from earlier work
[5] = tested on: human tumor cell lines; conditions: cited from earlier work

C=C1C(=O)N[C@H](C)C(=O)N[C@@H](CC(C)C)C(=O)N[C@@H](C(=O)O)[C@H](C)C(=O)N[C@@H](CCCNC(=N)N)C(=O)N[C@@H](/C=C/C(C)=C/[C@H](C)[C@H](Cc2ccccc2)OC)[C@H](C)C(=O)N[C@@H](C(=O)O)CCC(=O)N1C [LR, microcystin-LR] (R[Adda][d(γGlu)][NMeDha][dA]L[dAsp(3S-Me)]-OH; lactam N-7)
Ratio 1B1 to 1B3 [1]: 0.2 | IC50 [2]: 0.03 nM | IC50 [3]: 1 nM | IC50 [4]: 5.1 nM

CC[C@H](C)[C@@H]([C@@H](CC(=O)N1CCC[C@H]1[C@H](OC)[C@@H](C)C(=O)N[C@H](C)[C@@H](O)c1ccccc1)OC)N(C)C(=O)[C@@H](NC(=O)[C@@H](NC)C(C)C)C(C)C [Monomethyl auristatin E] (H-[NMeV]V[Dil][Dolaproine]-X2)
cytotoxic potency [5]: 3.9 to 10.3 nM

C/C=C1/C(=O)N[C@@H](C(=O)O)[C@H](C)C(=O)N[C@@H](CCCNC(=N)N)C(=O)N[C@@H](/C=C/C(C)=C/[C@H](C)[C@H](Cc2ccccc2)OC)[C@H](C)C(=O)N[C@@H](C(=O)O)CCC(=O)N1C [NOD, Nodularin]
Ratio 1B1 to 1B3 [1]: <0.1 | IC50 [3]: 8.4 nM | IC50 [4]: > 100 nM

From patent US11124818B2 (priority 2017, dated 2021)
